Measured values reported in article PMC5481814, “Stapled Voltage-Gated Calcium Channel (CaV) α-Interaction Domain (AID) Peptides Act As Selective Protein–Protein Interaction Inhibitors of CaV Function” (ACS Chemical Neuroscience, 2017).
Starred links: 1 amine or outer side, 2 acyl side, 3 side chain; linkers in the order of their positions; H or OH if unused. Positions of bridges follow the written chain, without caps; N, C: chain ends. Residues, ends and D or L forms follow the SMILES beside them. No end group written: not given here. mXylylene = c1cc(C[*:1])cc(C[*:2])c1

Tests used:
[1] = molecular target: CaVβ2a core (Rattus norvegicus, UniProt Q8VGC3); assay: Isothermal titration calorimetry, AID peptide:CaVβ2a binding; conditions: for Kd: 150 mM KCl, 10 mM potassium phosphate, 20 μM peptide into 2 μM CaVβ2a core
From the text: Having determined that the backbone staples are able to affect AID helix content (Figure 1) and are structurally compatible with the CaVβ-AID interaction (Figure 2), we used isothermal titration calorimetry (ITC) to investigate whether the AID staples impacted binding thermodynamics. […] (Figure 3A, Table 1). This binding reaction is driven by a favorable enthalpic component (ΔH = −15.6 ± 2.4 kcal mol^–1) that is opposed by a large entropic cost (ΔS = −16.7 ± 6.0 cal mol^–1 K^–1) that most likely results from the requirement to reduce the degrees of freedom of the highly disordered ligand upon binding.
Titrations were performed at 15 °C using a VP-ITC microcalorimeter (MicroCal). Samples were dialyzed overnight at 4 °C (Slide-A-Lyzer, 2 kDa molecular weight cutoff, Thermo Scientific) against 150 mM KCl and 10 mM potassium phosphate, pH 7.3. After 30 min centrifugation at 40 000 rpm at 4 °C, protein concentrations were determined by absorbance at 280 nm.[91] All samples were degassed for 5 min prior to loading into the calorimeter. CaV1.2 CaVβ2a core at a concentration of 2 μM was titrated with 20 μM modified or unmodified AID peptide with one 4 μL injection followed by 29 injections of 10 μL of titrant. To correct the baseline, heat of dilution from titrations of injectant into buffer was subtracted. Data were processed with MicroCal Origin 7.0 using a single site binding model.

[2] = molecular target: T1, CaV1.2:CaVβ3 (Oryctolagus cuniculus, UniProt P54286); assay: Peptide injection competition, two-electrode voltage clamp, CaV1.2:CaVβ3 channels in Xenopus oocytes; type: cell-based, human CaV1.2; Xenopus oocytes; conditions: for V1/2, midpoint of activation: Ca2+ charge carrier
T1 construct: expressed in transfected cells; host or cells: Xenopus oocytes (mRNA injection)
T1 sequence (P54286 whole entry): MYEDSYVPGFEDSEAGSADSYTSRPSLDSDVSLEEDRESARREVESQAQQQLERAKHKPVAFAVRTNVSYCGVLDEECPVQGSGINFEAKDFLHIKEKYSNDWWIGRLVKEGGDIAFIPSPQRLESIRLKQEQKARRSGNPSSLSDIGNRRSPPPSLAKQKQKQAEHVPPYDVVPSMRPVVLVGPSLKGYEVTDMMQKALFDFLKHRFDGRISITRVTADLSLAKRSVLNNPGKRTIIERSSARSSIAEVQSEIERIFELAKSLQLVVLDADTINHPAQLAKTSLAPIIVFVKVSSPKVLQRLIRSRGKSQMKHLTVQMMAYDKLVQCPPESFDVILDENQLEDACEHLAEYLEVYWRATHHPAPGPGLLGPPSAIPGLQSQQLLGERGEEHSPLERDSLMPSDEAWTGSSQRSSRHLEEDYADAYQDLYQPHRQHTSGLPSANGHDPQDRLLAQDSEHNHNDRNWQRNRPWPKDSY

[3] = Circular dichroism of AID peptides (helical content); type: physicochemical; conditions: 70 μM, 4 °C, 50 mM KCl, 10 mM potassium phosphate, pH 7.3, 2 mm cuvette, triplicate points
Description: Circular dichroism spectra were measured in a 2 mm path length quartz cuvette (Hellma), 50 mM KCl, and 10 mM KH2PO4/K2HPO4, pH 7.3, using an Aviv model 215 spectropolarimeter (Aviv Biomedical) equipped with a Peltier temperature controller. Wavelength scans from 320 to 190 nm were taken at 4 °C. Each point was determined in triplicate from the same sample and subtracted by the average of a triplicate buffer scan. Each sample was checked for purity by HPLC. Molar ellipticity was calculated as follows: θ = 100(Δm)/(Cnl), where Δm is the CD signal in millidegrees after buffer subtraction, C is the millimolar peptide concentration, n is the number of residues in the peptide, and l is the cuvette path length in centimeters.

[4] = molecular target: CaV1.2-Y437A:CaVβ2a (Rattus norvegicus, UniProt Q8VGC3); assay: Peptide injection competition, two-electrode voltage clamp, CaV1.2-Y437A:CaVβ2a channels in Xenopus oocytes; conditions: 400 μM peptide; for ti300, percent inactivation at 300 ms / A1, relative amplitude of fast inactivation component / A2, relative amplitude of second inactivation component / τ1, fast inactivation time constant / τ2, second inactivation time constant: +20 mV; for ti300, percent inactivation at 300 ms / V1/2, midpoint of activation: Ca2+ charge carrier; for ti300, percent inactivation at 300 ms / A1, relative amplitude of fast inactivation component / A2, relative amplitude of second inactivation component / τ1, fast inactivation time constant / τ2, second inactivation time constant / V1/2, midpoint of activation / Imax, maximal current amplitude: mean ± SEM
[5] = ITC, 15 °C, pH 7.3, single site model, n = 3 (Cav1.2 AID), 2 (AID-CEN), 3 (AID-CAP)
[6] = ITC, 15 °C, pH 7.3, n = 3 (Cav1.2 AID), 2 (AID-CEN), 3 (AID-CAP)
[7] = 2.8 mM peptide, over 30 min postinjection
[8] = 5 min postinjection, 2.8 mM peptide, +20 mV, double exponential fit, mean ± SEM, N = 6 (AID-CAP), 7 (AID)
[9] = 5 min postinjection, 2.8 mM peptide, +20 mV, monoexponential fit, mean ± SEM, N = 6 (AID-CAP), 7 (AID)
[10] = 5 min postinjection, 2.8 mM peptide, mean ± SEM, N = 6 (AID-CAP), 7 (AID)
[11] = 30 min postinjection, 2.8 mM peptide, +20 mV, monoexponential fit, mean ± SEM, N = 6 (AID-CAP), 7 (AID)
[12] = 30 min postinjection, 2.8 mM peptide, mean ± SEM, N = 6 (AID-CAP), 7 (AID)

CC[C@H](C)[C@H](NC(=O)[C@H](Cc1c[nH]c2ccccc12)NC(=O)[C@H](CC(=O)O)NC(=O)[C@H](CC(C)C)NC(=O)[C@H](Cc1ccc(O)cc1)NC(=O)CNC(=O)[C@H](CCCCN)NC(=O)[C@H](CC(C)C)NC(=O)[C@H](CC(=O)O)NC(=O)[C@@H]1CSCc2cccc(c2)CSC[C@H](N)C(=O)N[C@@H](CO)C(=O)N2CCC[C@H]2C(=O)N[C@@H](CC(C)C)C(=O)N[C@@H](CCC(=O)O)C(=O)N1)C(=O)N[C@H](C(=O)N[C@@H](CCC(N)=O)C(=O)N[C@@H](C)C(=O)N[C@@H](CCC(=O)O)C(N)=O)[C@@H](C)O [AID-CAP] (H-CSPLECDLKGYLDWITQAE-NH2; linker 1-6 via mXylylene)
Kd [1, 5]: 5.1 ± 1.6 nM

CQQLEEDLKGYLDWITQAE-NH2 [AID]
Kd [1, 5]: 6.6 ± 2 nM | ΔH [1, 6]: –15.6 ± 2.4 kcal mol^–1 | ΔS [1, 6]: –16.7 ± 6.0 cal mol^–1 K^–1 | N (binding stoichiometry) [1, 5]: 0.94 ± 0.07 | Kd/Kd CaV1.2 AID ([1]; ratio of Kd to that of CaV1.2 AID): 1 | P vs HotA, Figure 7B, E, F (ti300, Imax) ([2]; 2.8 mM peptide vs 4 mM HotA): < 0.001 | P vs HotA, Figure 7C, D (inactivation τ, ΔV1/2) ([2]; 2.8 mM peptide vs 4 mM HotA): < 0.05 | change in channel inactivation kinetics, in words [2, 7]: changed from one having two components to a monoexponential process | current rundown, in words [2, 7]: strongly increased current rundown | A1 [2, 8]: 54.0 ± 2.7% | A2 [2, 8]: 34.1 ± 1.4% | τ1 [2, 8]: 40.0 ± 5.2 ms | τ2 [2, 8]: 354.4 ± 119.2 ms | A1 [2, 9]: 76.9 ± 3.1% | τ1 [2, 9]: 62.6 ± 7.6 ms | ti300, percent inactivation at 300 ms ([2]; 5 min postinjection, 2.8 mM peptide, +20 mV, mean ± SEM, N = 6 (AID-CAP), 7 (AID)): 73.4 ± 2.0% | V1/2, midpoint of activation [2, 10]: 10.4 ± 2.2 mV | Imax, maximal current amplitude [2, 10]: –0.860 ± 0.096 | A1 [2, 11]: 65.0 ± 4.0% | τ1 [2, 11]: 118.2 ± 11.0 ms | ti300, percent inactivation at 300 ms ([2]; 30 min postinjection, 2.8 mM peptide, +20 mV, mean ± SEM, N = 6 (AID-CAP), 7 (AID)): 49.8 ± 1.9% | V1/2, midpoint of activation [2, 12]: 21.0 ± 2.0 mV | Imax, maximal current amplitude [2, 12]: –0.116 ± 0.010 | effect on CaV1.2α1:CaVβ3 interaction, in words ([2]; 30 min postinjection, AID, AID-CAP 2.8 mM, HotA 4 mM): near complete disruption of the CaV1.2α1:CaVβ3 interaction | CD spectrum / helical content, in words [3]: absent | P vs HotA, all panels of Figure 5 (ti300, A1, ΔV1/2, Imax) [4]: < 0.001 | effect on inactivation / CaVβ binding, in words ([4]; 30 min postinjection): interfered completely with CaVβ binding | rundown of Imax ([4]; over 30 min postinjection, vs water or HotA): consistently higher rundown | ti300, percent inactivation at 300 ms ([4]; 5 min postinjection): 64.9 ± 1.9% | A1, relative amplitude of fast inactivation component ([4]; 5 min postinjection): 48.5 ± 1.8% | A2, relative amplitude of second inactivation component ([4]; 5 min postinjection): 24.1 ± 1.6% | τ1, fast inactivation time constant ([4]; 5 min postinjection): 35.0 ± 1.5 ms | τ2, second inactivation time constant ([4]; 5 min postinjection): 251.5 ± 16.1 ms | V1/2, midpoint of activation ([4]; 5 min postinjection): 2.9 ± 1.7 mV | Imax, maximal current amplitude ([4]; 5 min postinjection): –0.883 ± 0.111 | ti300, percent inactivation at 300 ms ([4]; 30 min postinjection): 44.8 ± 2.1% | A1, relative amplitude of fast inactivation component ([4]; 30 min postinjection): 24.5 ± 3.0% | A2, relative amplitude of second inactivation component ([4]; 30 min postinjection): 31.0 ± 1.9% | τ1, fast inactivation time constant ([4]; 30 min postinjection): 53.3 ± 14.4 ms | τ2, second inactivation time constant ([4]; 30 min postinjection): 304.0 ± 50.9 ms | V1/2, midpoint of activation ([4]; 30 min postinjection): 15.1 ± 2.0 mV | Imax, maximal current amplitude ([4]; 30 min postinjection): –0.242 ± 0.021

CC[C@H](C)[C@H](NC(=O)[C@H](Cc1c[nH]c2ccccc12)NC(=O)[C@@H]1CSCc2cccc(c2)CSC[C@H](NC(=O)[C@H](CC(C)C)NC(=O)[C@H](CC(=O)O)NC(=O)[C@H](CCC(=O)O)NC(=O)[C@H](CCC(=O)O)NC(=O)[C@H](CC(C)C)NC(=O)[C@@H]2CCCN2C(=O)[C@H](CO)NC(=O)[C@H](C)N)C(=O)NCC(=O)N[C@@H](Cc2ccc(O)cc2)C(=O)N[C@@H](CC(C)C)C(=O)N1)C(=O)N[C@H](C(=O)N[C@@H](CCC(N)=O)C(=O)N[C@@H](C)C(=O)N[C@@H](CCC(=O)O)C(N)=O)[C@@H](C)O [AID-CEN] (H-ASPLEEDLCGYLCWITQAE-NH2; linker 9-13 via mXylylene)
Kd [1, 5]: 5.2 ± 1.5 nM
